Source: patent US20120251999A1, “VITRIFICATION SYSTEMS AND METHODS” (THE BRIGHAM AND WOMEN'S HOSPITAL, INC., priority 2011, published 2012)
Values joined by “and” are separate entries in the source; they are usually repeats but may differ in a detail not shown here. Equal values may be shown once. Read-outs that look alike come from different tables or passages of the source.

Experiments:
[1] = ejected into liquid nitrogen
Description: The experimental setup was as described in Song et al. PNAS 2010.

[2] = system: mouse oocytes; assay: Parthenogenetic activation of oocytes using SrCl2 (cleavage and blastocyst development); assay type: cell-based
Method: Prior to parthenogenetic activation, oocytes were cultured in KSOM medium supplemented with 4 mg/ml BSA for 2 h to allow oocytes to recover from the previous experimental procedure. For parthenogenetic activation, oocytes were incubated in SrCl2 solution in KSOM medium at 37° C. in 5% CO2/95% air for 2 h and then washed three-times with FHM medium. Oocytes were then transferred to KSOM medium and cultured at 37° C. in 5% CO2/95% air.
To determine the optimal SrCl2 concentration to parthenogenetically activate fresh mouse oocytes, we tested four SrCl2 concentrations (10 mM, 20 mM, 50 mM and 100 mM). Over the following 6 days, treated oocytes were examined microscopically every day for embryo development to the cleavage and blastocyst stages. Day 1 is defined as 24 h after treatment. Oocytes incubated in the regular KSOM medium without SrCl2 were used as controls. To determine whether droplet encapsulation has effect on oocyte parthenogenetic activation, oocytes in FHM medium were ejected into a center well culture dish containing 400 μl of FHM medium. To minimize the effects of shear stress generated at the ejector tip when using medium instead of CPAs, the flow rate of nitrogen gas was reduced to 0.6 SLPM to obtain droplet sizes similar to those obtained at 0.8 SLPM using CPAs. Oocytes were retrieved and cultured in KSOM medium at 37° C. in 5% CO2/95% air for 2 h before parthenogenetic activation. SrCl2 solution at the concentration of 50 mM, which gave the highest cleavage and blastocyst rates with control oocytes, was used for the activation of oocytes following ejection into the medium.

[3] = 10 mM SrCl2, fresh control oocytes
[4] = 10 mM SrCl2, fresh control oocytes, 81 initiated
[5] = 20 mM SrCl2, fresh control oocytes
[6] = 20 mM SrCl2, fresh control oocytes, 82 initiated
[7] = 50 mM SrCl2, fresh control oocytes
[8] = 50 mM SrCl2, fresh control oocytes, 79 initiated
[9] = 50 mM SrCl2, oocytes after ejection with medium
[10] = 100 mM SrCl2, fresh control oocytes
[11] = 100 mM SrCl2, fresh control oocytes, 88 initiated

With CC(O)CO (stereo not shown) [PrOH, 1,2-propanediol] the vitrification of droplets ([1]; 194 μm droplets, 3 M PrOH) was “vitrified” and the vitrification of droplets ([1]; 525 μm droplets, 4.5 M PrOH) was “non-vitrified”.

With [Cl-].[Cl-].[Sr+2] [SrCl2] the “Blastocysts developed (%)” value [2, 3] was 0 (0), the “Oocytes cleaved (%)” value [2, 3] was 3.7% and the “Blastocysts developed (number)” value [2, 4] was 0 (0). The “No. of Oocytes cleaved” value [2, 4] was 3, the “Blastocysts developed (%)” value [2, 5] was 15.9% and the “Oocytes cleaved (%)” value [2, 5] was 46.3%. For the same compound, the “Blastocysts developed (number)” value [2, 6] was 13, the “No. of Oocytes cleaved” value [2, 6] was 38 and the “Blastocysts developed (%)” value [2, 7] was 49.4%. The “Oocytes cleaved (%)” value [2, 7] was 88.9% and 88.6%, the “Blastocysts developed (number)” value [2, 8] was 33 and the “No. of Oocytes cleaved” value [2, 8] was 70. The “Blastocysts developed (%)” value [2, 9] was 26.0%, the “Oocytes cleaved (%)” value [2, 9] was 96% and 97.0% and the “Blastocysts developed (number)” value ([2]; 50 mM SrCl2, oocytes after ejection with medium, 100 initiated) was 26. The “No. of Oocytes cleaved” value ([2]; 50 mM SrCl2, oocytes after encapsulation in medium droplets and ejection into medium, 100 initiated) was 96, the “Blastocysts developed (%)” value [2, 10] was 2.3% and the “Oocytes cleaved (%)” value [2, 10] was 48.9%. For the same compound, the “Blastocysts developed (number)” value [2, 11] was 2 and the “No. of Oocytes cleaved” value [2, 11] was 43.
